Laboratory results: ChEMBL document CHEMBL5543091, “Exploring structural determinants of neuroprotection bias on novel glypromate conjugates with bioactive amines” (2024)
Values joined by “and” are separate entries in the source; they are usually repeats but may differ in a detail not shown here. Equal entries are not always repeated. Active and inactive are the calls of the source. No cut-off for these calls is given here.

Legend:
[1] = test system: SH-SY5Y; assay: Cytotoxicity against differentiated human SH-SY5Y cells assessed as reduction in cell viability at 100 uM measured after 48 hrs by MTT reduction assay relative to control; type: functional
[2] = test system: SH-SY5Y; assay: Cytotoxicity against non-differentiated human SH-SY5Y cells assessed as reduction in cell viability measured after 24 hrs by MTT reduction assay relative to control; type: functional; design: concentration or dose not given beside the values
[3] = test system: SH-SY5Y; assay: Neuroprotective activity against Amyloid beta(25 to 35)-induced cell injury in non-differentiated human SH-SY5Y cells assessed as reduction in formation of protein aggregates at 100 uM incubated for 24 hrs by ThT fluorescence assay; type: functional; design: scale not given: the % may be the effect or the level left
[4] = test system: SH-SY5Y; assay: Neuroprotective activity against 6-OHDA-induced cytotoxicity in differentiated human SH-SY5Y cells at 100 uM incubated for 48 hrs followed by exposure to 6-OHDA by MTT reduction assay (reference value: 61.50+/-7.43%); type: functional; design: scale not given: the % may be the effect or the level left
[5] = test system: SH-SY5Y; assay: Neuroprotective activity in Amyloid beta(25 to 35)-induced non-differentiated human SH-SY5Y cells assessed as fold increase in protein aggregation reduction 100 uM incubated for 24 hrs by ThT fluorescence assay; type: functional
[6] = test system: SH-SY5Y; assay: Neuroprotective activity against Amyloid beta(25 to 35)-induced cell injury in non-differentiated human SH-SY5Y cells assessed as reduction in formation of protein aggregates at 100 uM incubated for 24 hrs by fluorescence microscopy based analysis; type: functional
[7] = test system: SH-SY5Y; assay: Neuroprotective activity against Amyloid beta(25 to 35)-induced cell injury in non-differentiated human SH-SY5Y cells assessed as reduction in formation of protein aggregates at 100 uM incubated for 24 hrs in presence of glypromate by ThT fluorescence assay; type: functional; design: scale not given: the % may be the effect or the level left
[8] = test system: SH-SY5Y; assay: Neuroprotective activity against 6-OHDA-induced cytotoxicity in differentiated human SH-SY5Y cells at 100 uM incubated for 48 hrs followed by exposure to 6-OHDA in presence of glypromate by MTT reduction assay; type: functional, cell-based
[9] = test system: SH-SY5Y; assay: Neuroprotective activity against 6-OHDA-induced cytotoxicity in differentiated human SH-SY5Y cells at 100 uM incubated for 48 hrs followed by exposure to 6-OHDA by MTT reduction assay; type: functional, cell-based
[10] = test system: SH-SY5Y; assay: Neuroprotective activity against 6-OHDA-induced cytotoxicity in differentiated human SH-SY5Y cells at 100 uM incubated for 48 hrs followed by exposure to 6-OHDA in presence of memantine by MTT reduction assay; type: functional, cell-based

SMILES	Activity [1]	Activity [2]	Activity [3]	also measured
COC(=O)[C@H](CCC(=O)NC12CC3CC(CC(C3)C1)C2)NC(=O)[C@@H]1CCCCN1C(=O)CNC(=O)OC(C)(C)C	91.13%	92.96%	127.26%	–
COC(=O)CC[C@H](NC(=O)[C@@H]1CCCCN1C(=O)CN(C)C)C(=O)N[C@@H]1CCc2ccccc21	94.5%	–	–	Activity ([2]; 24 h): 95.12% and <85%
COC(=O)[C@H](CCC(=O)NC12CC3CC(C)(CC(C)(C3)C1)C2)NC(=O)[C@@H]1CCCCN1C(=O)CNC(=O)OC(C)(C)C	91.53%	<85%	–	–
COC(=O)[C@H](CCC(=O)NC12CC3CC(C)(CC(C)(C3)C1)C2)NC(=O)[C@@H]1CCCN1C(=O)CN.O=C(O)C(F)(F)F	–	<85%	–	–
COC(=O)[C@H](CCC(=O)NC12CC3CC(C)(CC(C)(C3)C1)C2)NC(=O)[C@@H]1CCCCN1C(=O)CN(C)C	<25%	<85%	–	–
COC(=O)CC[C@H](NC(=O)[C@@H]1CCCCN1C(=O)CN)C(=O)NC12CC3CC(CC(C3)C1)C2.O=C(O)C(F)(F)F	97.33%	92.68%	132.48%	–
COC(=O)CC[C@H](NC(=O)[C@@H]1CCCN1C(=O)CNC(=O)OC(C)(C)C)C(=O)NC12CC3CC(C)(CC(C)(C3)C1)C2	–	<85%	–	–
COC(=O)CC[C@H](NC(=O)[C@@H]1CCCCN1C(=O)CNC(=O)OC(C)(C)C)C(=O)NC12CC3CC(CC(C3)C1)C2	101.45%	92.73%	133.03%	–
COC(=O)[C@H](CCC(=O)N[C@@H]1CCc2ccccc21)NC(=O)[C@@H]1CCCCN1C(=O)CNC(=O)OC(C)(C)C	–	96.69%	120.77%	–
COC(=O)[C@H](CCC(=O)NC12CC3CC(CC(C3)C1)C2)NC(=O)[C@@H]1CCCCN1C(=O)CN.O=C(O)C(F)(F)F	–	87.9%	–	–
COC(=O)CC[C@H](NC(=O)[C@@H]1CCCN1C(=O)CN(C)C)C(=O)NC12CC3CC(C)(CC(C)(C3)C1)C2	103.96%	<85%	–	Activity [4]: 70.93%
COC(=O)[C@H](CCC(=O)NC12CC3CC(CC(C3)C1)C2)NC(=O)[C@@H]1CCCCN1C(=O)CN(C)C	<25%	<85%	–	–
COC(=O)[C@H](CCC(=O)NC12CC3CC(CC(C3)C1)C2)NC(=O)[C@@H]1CCCN1C(=O)CN(C)C	–	86.22%	–	–
COC(=O)CC[C@H](NC(=O)[C@@H]1CCCN1C(=O)CNC(=O)OC(C)(C)C)C(=O)NC12CC3CC(CC(C3)C1)C2	–	89.28%	80.35%	–
COC(=O)CC[C@H](NC(=O)[C@@H]1CCCCN1C(=O)CN)C(=O)NC12CC3CC(C)(CC(C)(C3)C1)C2.O=C(O)C(F)(F)F	<25%	<85%	–	–
COC(=O)[C@H](CCC(=O)NC12CC3CC(C)(CC(C)(C3)C1)C2)NC(=O)[C@@H]1CCCCN1C(=O)CN.O=C(O)C(F)(F)F	<25%	<85%	–	–
COC(=O)[C@H](CCC(=O)N[C@@H]1CCc2ccccc21)NC(=O)[C@@H]1CCCN1C(=O)CNC(=O)OC(C)(C)C	–	<85%	–	–
COC(=O)[C@H](CCC(=O)N[C@@H]1CCc2ccccc21)NC(=O)[C@@H]1CCCN1C(=O)CN.O=C(O)C(F)(F)F	98.02%	94.4%	57.42%	fold change (FC) [5]: 3.6; Activity [6]: Active
COC(=O)[C@H](CCC(=O)N[C@@H]1CCc2ccccc21)NC(=O)[C@@H]1CCCCN1C(=O)CN.O=C(O)C(F)(F)F	–	89.37%	–	–
COC(=O)CC[C@H](NC(=O)[C@@H]1CCCCN1C(=O)CN)C(=O)N[C@@H]1CCc2ccccc21.O=C(O)C(F)(F)F	98.85%	94.96%	129.25%	–

SMILES	Activity [1]	Activity [2]	Activity [3]	also measured
N[C@@H]1CCc2ccccc21	–	–	38%	Activity [7]: 79.68%
COC(=O)[C@H](CCC(=O)NC12CC3CC(C)(CC(C)(C3)C1)C2)NC(=O)[C@@H]1CCCN1C(=O)CN(C)C	99.94%	<85%	–	Activity [4]: 65.16%
COC(=O)[C@H](CCC(=O)NC12CC3CC(CC(C3)C1)C2)NC(=O)[C@@H]1CCCN1C(=O)CN.O=C(O)C(F)(F)F	–	89.04%	–	–
CC12CC3CC(C)(C1)CC(N)(C3)C2	–	–	–	Activity [8]: inactive; Activity [9]: inactive
COC(=O)[C@H](CCC(=O)NC12CC3CC(CC(C3)C1)C2)NC(=O)[C@@H]1CCCN1C(=O)CNC(=O)OC(C)(C)C	–	<85%	–	–
COC(=O)[C@H](CCC(=O)NC12CC3CC(C)(CC(C)(C3)C1)C2)NC(=O)[C@@H]1CCCN1C(=O)CNC(=O)OC(C)(C)C	–	<85%	–	–
COC(=O)CC[C@H](NC(=O)[C@@H]1CCCN1C(=O)CN(C)C)C(=O)NC12CC3CC(CC(C3)C1)C2	107.67%	91.14%	79.52%	Activity [4]: 68.03%
COC(=O)CC[C@H](NC(=O)[C@@H]1CCCCN1C(=O)CNC(=O)OC(C)(C)C)C(=O)NC12CC3CC(C)(CC(C)(C3)C1)C2	94.5%	<85%	–	–
NCC(=O)N1CCC[C@H]1C(=O)N[C@@H](CCC(=O)O)C(=O)O	–	–	87.78%	Activity [10]: inactive
COC(=O)CC[C@H](NC(=O)[C@@H]1CCCN1C(=O)CN(C)C)C(=O)N[C@@H]1CCc2ccccc21	104.91%	93.5%	69.21%	–
COC(=O)[C@H](CCC(=O)N[C@@H]1CCc2ccccc21)NC(=O)[C@@H]1CCCCN1C(=O)CN(C)C	–	–	–	Activity ([2]; 24 h): 97.03% and <85%
COC(=O)CC[C@H](NC(=O)[C@@H]1CCCN1C(=O)CN)C(=O)NC12CC3CC(CC(C3)C1)C2.O=C(O)C(F)(F)F	109.73%	94.84%	–	Activity [4]: 67.28%
COC(=O)CC[C@H](NC(=O)[C@@H]1CCCN1C(=O)CNC(=O)OC(C)(C)C)C(=O)N[C@@H]1CCc2ccccc21	–	<85%	–	–
COC(=O)CC[C@H](NC(=O)[C@@H]1CCCCN1C(=O)CN(C)C)C(=O)NC12CC3CC(C)(CC(C)(C3)C1)C2	<25%	<85%	–	–
COC(=O)[C@H](CCC(=O)N[C@@H]1CCc2ccccc21)NC(=O)[C@@H]1CCCN1C(=O)CN(C)C	99.49%	99.51%	81.51%	–
COC(=O)CC[C@H](NC(=O)[C@@H]1CCCN1C(=O)CN)C(=O)N[C@@H]1CCc2ccccc21.O=C(O)C(F)(F)F	98.44%	87.33%	62.25%	fold change (FC) [5]: 3.2; Activity [6]: Active; Activity [4]: 65.5%
COC(=O)CC[C@H](NC(=O)[C@@H]1CCCCN1C(=O)CN(C)C)C(=O)NC12CC3CC(CC(C3)C1)C2	–	93.57%	–	–
COC(=O)CC[C@H](NC(=O)[C@@H]1CCCN1C(=O)CN)C(=O)NC12CC3CC(C)(CC(C)(C3)C1)C2.O=C(O)C(F)(F)F	97.3%	<85%	–	–
COC(=O)CC[C@H](NC(=O)[C@@H]1CCCCN1C(=O)CNC(=O)OC(C)(C)C)C(=O)N[C@@H]1CCc2ccccc21	99.35%	97.28%	120.05%	–
